Results published in publication PMC4556431 (Angewandte Chemie (International ed. in English), 2015).

Biological target: Cif (CFTR inhibitory factor) (Pseudomonas aeruginosa, UniProt A0A0H2ZD27)
Assay: epoxide hydrolase inhibition assay
Type: biochemical

Cif (CFTR inhibitory factor), sequence (A0A0H2ZD27 25-319 limits assumed): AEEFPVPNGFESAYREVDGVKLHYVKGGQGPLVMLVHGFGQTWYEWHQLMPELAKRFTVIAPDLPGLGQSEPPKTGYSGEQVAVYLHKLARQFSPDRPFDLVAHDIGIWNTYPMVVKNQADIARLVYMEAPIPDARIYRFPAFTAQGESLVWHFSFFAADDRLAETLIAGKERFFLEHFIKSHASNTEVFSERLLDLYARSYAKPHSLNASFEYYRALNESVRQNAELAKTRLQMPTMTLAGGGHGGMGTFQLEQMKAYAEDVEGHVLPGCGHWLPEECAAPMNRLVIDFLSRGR

## N[C@@H](Cc1cc(I)c(Oc2cc(I)c(O)c(I)c2)c(I)c1)C(=O)O [compound 9, 9]
  IC50: > 100 µM
